Drawing on PubChem BioAssay (NCI), this text covers GI50 and TGI for nine compounds.

Among the test systems are SR leukemia; SNB-75 CNS; RPMI-8226 leukemia; BT-549 breast; SF-268 CNS; OVCAR-8 ovarian; SF-539 CNS; NCI-H522 lung; SW-620 colon; CAKI-1 renal.
Holding throughout (experiment): NCI anticancer screen, dose series, 48 h

Several values for one entry are separate records, joined by “and”; a condition that tells them apart may be missing. Identical values can stand only once.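 1) Cells in 96-well plates. 2) Compound, 48 h, 5 concentrations. 3) Linear interpolation between surrounding doses. 4) Unreached endpoint = highest concentration. Abbreviation: GI50, concentration required for 50% inhibition of growth. TGI marks complete inhibition of growth.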

Take `CC1(C)N=C(N)N=C(N)N1c1ccc(OCC(=O)N2CCOCC2)c(Cl)c1`: the GI50 in the test with SR leukemia is 0.568 µM; in the test with SNB-75 CNS it was 10.3 µM; with RPMI-8226 leukemia it was 9.04 µM; with BT-549 breast, 14.8 µM; in the test on SF-268 CNS, 0.759 µM; with OVCAR-8 ovarian, 7.25 µM. Moreover, the GI50 in the test with SF-539 CNS was 5.32 µM; with NCI-H522 lung, 2.24 µM; in the test on SW-620 colon, 0.714 µM. Besides, the TGI in the test with SR leukemia, in the test with SNB-75 CNS, in the test on RPMI-8226 leukemia, in the test with BT-549 breast, with SF-268 CNS and with OVCAR-8 ovarian was over 100 µM in each case. Further, the TGI in the test on SF-539 CNS, in the test with NCI-H522 lung and in the test on SW-620 colon was over 100 µM throughout.

Take `COc1cc(OC)c2cc(C(=O)O)c(=O)oc2c1`: the GI50 in the test on SR leukemia was over 100 µM; in the test with SNB-75 CNS, over 100 µM; with RPMI-8226 leukemia, 6.1 µM; in the test on BT-549 breast, over 100 µM; in the test with SF-268 CNS, over 100 µM; in the test on OVCAR-8 ovarian, over 100 µM. The GI50 in the test with CAKI-1 renal is 61.4 µM; with SF-539 CNS, over 96.2 µM; in the test on NCI-H522 lung it was over 71.5 µM; in the test with SW-620 colon, over 100 µM. The TGI in the test on SR leukemia was over 100 µM; in the test with SNB-75 CNS, over 100 µM; in the test with RPMI-8226 leukemia it was over 36.2 µM; in the test on BT-549 breast it was over 100 µM; in the test on SF-268 CNS it was over 100 µM; with OVCAR-8 ovarian, over 100 µM. Besides, the TGI in the test on CAKI-1 renal, in the test on SF-539 CNS, in the test on NCI-H522 lung and in the test with SW-620 colon was over 100 µM each time.

For `C/C=C(\CCC1NCCc2c1[nH]c1ccccc21)[Si](C)(C)C` (centres undefined), the GI50 is 8.12 µM and 2.7 µM with SR leukemia; 19.8 µM and 2.36 µM in the test on RPMI-8226 leukemia; 7.02 µM and 2.72 µM in the test on CAKI-1 renal; 6.2 µM and 1.66 µM in the test with SF-539 CNS; 5.29 µM and 1.92 µM with SW-620 colon. Also, the TGI with SR leukemia is 18.4 µM and 8.42 µM; in the test on SNB-75 CNS, 14.8 µM and 16.7 µM; in the test on BT-549 breast, 23.2 µM; in the test on SF-268 CNS, 26.2 µM and 23.6 µM; in the test on OVCAR-8 ovarian, 19.5 µM and 8.79 µM; in the test on CAKI-1 renal, 21.4 µM and 11 µM. Besides, the TGI is 11.9 µM and 3.09 µM in the test with SF-539 CNS; 27.9 µM and 4.96 µM in the test with NCI-H522 lung; 9.63 µM and 3.63 µM in the test on SW-620 colon.

Take `COc1cc(C2CC(c3ccc(Nc4ccnc5cc(Cl)ccc45)cc3)=NN2C=O)cc(OC)c1OC` (centres undefined): the GI50 in the test with SR leukemia is 2.58 µM; with SNB-75 CNS, 5.19 µM; in the test with RPMI-8226 leukemia, 2.56 µM; in the test with BT-549 breast, 1.92 µM; in the test with SF-268 CNS, 28 µM; with OVCAR-8 ovarian it was 9.98 µM. In addition, the GI50 in the test with CAKI-1 renal is 5.47 µM; in the test with SF-539 CNS it was 2.75 µM; in the test with SW-620 colon, 3.49 µM. For the same compound, the TGI is 6.49 µM in the test on SR leukemia; 32.5 µM in the test with SNB-75 CNS; 8.63 µM in the test with RPMI-8226 leukemia; 3.97 µM in the test with BT-549 breast; over 100 µM with SF-268 CNS; over 100 µM in the test with OVCAR-8 ovarian. In addition, the TGI in the test with CAKI-1 renal came out at 26.5 µM; in the test with SF-539 CNS, 6.38 µM; in the test on SW-620 colon it was 17.7 µM.

For the compound `COc1ccc(N(C)c2nc(Cl)nc3ccn(C)c23)cc1`, the GI50 with SR leukemia, in the test with SNB-75 CNS, in the test with RPMI-8226 leukemia, in the test on BT-549 breast, in the test on SF-268 CNS and in the test on OVCAR-8 ovarian was under 0.01 µM throughout. The GI50 in the test with SF-539 CNS, in the test on NCI-H522 lung and with SW-620 colon was under 0.01 µM each time. Besides, the TGI in the test with SR leukemia, with SNB-75 CNS, with RPMI-8226 leukemia, with BT-549 breast, with SF-268 CNS and with OVCAR-8 ovarian was over 100 µM throughout. Also, the results for the TGI with SF-539 CNS, with NCI-H522 lung and in the test with SW-620 colon were over 100 µM, under 0.01 µM and over 100 µM, respectively.

With `Cn1c(=O)c2[nH]c(C3CC(=O)CC(c4nc5c([nH]4)c(=O)n(C)c(=O)n5C)N3)nc2n(C)c1=O` (centres undefined), the TGI in the test on SR leukemia, with SNB-75 CNS, in the test on RPMI-8226 leukemia, in the test on BT-549 breast, with SF-268 CNS and with OVCAR-8 ovarian was over 100 µM each time. Further, the TGI with CAKI-1 renal, in the test with SF-539 CNS, in the test with NCI-H522 lung and with SW-620 colon was over 100 µM throughout.

Take `NC(N)=N/N=C(/c1ccccc1)c1ccc(Cl)cc1`: the GI50 with SR leukemia was 3.94 µM; in the test with SNB-75 CNS it was 6.17 µM; with RPMI-8226 leukemia, 1.53 µM; in the test on BT-549 breast it was 50.5 µM; in the test on SF-268 CNS it was 8.44 µM; with OVCAR-8 ovarian, 36.4 µM. In addition, the GI50 was 13.9 µM in the test on CAKI-1 renal, 18.8 µM in the test with SF-539 CNS, 12.5 µM in the test with NCI-H522 lung and 3.93 µM in the test with SW-620 colon. Further, the TGI was over 100 µM with SR leukemia; 70.2 µM with SNB-75 CNS; 26.6 µM in the test with RPMI-8226 leukemia; over 100 µM in the test on BT-549 breast; over 100 µM with SF-268 CNS; over 100 µM in the test with OVCAR-8 ovarian. For the same compound, the TGI is over 100 µM with CAKI-1 renal, 53.5 µM in the test on SF-539 CNS, 71.1 µM in the test with NCI-H522 lung and over 100 µM with SW-620 colon.

In the case of `Oc1ccccc1Nc1nc2ccccc2c2occc12`, the GI50 in the test on SR leukemia was 14.8 µM; in the test with RPMI-8226 leukemia it was 9.11 µM; in the test on BT-549 breast, 7.59 µM; in the test with SF-268 CNS, 8.74 µM; with OVCAR-8 ovarian, 15.4 µM; in the test with CAKI-1 renal it was 1.78 µM. The GI50 in the test with SF-539 CNS was 10.4 µM; in the test on NCI-H522 lung, 8.36 µM; in the test on SW-620 colon it was 13.2 µM. The TGI was over 100 µM in the test on SR leukemia; 57.8 µM in the test with RPMI-8226 leukemia; 20.7 µM in the test on BT-549 breast; 28.6 µM in the test with SF-268 CNS; 35.8 µM with OVCAR-8 ovarian; 12.8 µM with CAKI-1 renal. Moreover, the TGI amounted to 22.1 µM in the test on SF-539 CNS, 24.2 µM with NCI-H522 lung and 26 µM in the test with SW-620 colon.

Regarding `COc1ccc2cc3[n+](cc2c1OC)CCc1cc2c(cc1-3)OCO2`, the TGI in the test on SR leukemia was > 100 µM and 71.5 µM and > 75.6 µM; in the test with RPMI-8226 leukemia it was over 100 µM; in the test with BT-549 breast, > 100 µM and 56.9 µM; in the test with CAKI-1 renal, > 100 µM and 210 µM; with SF-539 CNS, > 100 µM and 83.1 µM; in the test on SW-620 colon, > 100 µM and > 73.8 µM and 170 µM. In addition, the GI50 in the test with SNB-75 CNS was 21.4 µM; with BT-549 breast, 3.71 µM and 2.59 µM and 5.39 µM; in the test on SF-268 CNS it was 4.68 µM; with OVCAR-8 ovarian it was 3.69 µM; in the test with CAKI-1 renal, > 100 µM and 16.8 µM and 65 µM; with SF-539 CNS it was 18.1 µM. In addition, the GI50 in the test with SW-620 colon was 14.8 µM and 25.2 µM.
